# Measured values as given in patent US20180258381A1, “BIO-LAMINA BIOREACTORS AND METHODS OF MAKING AND USING THE SAME” (Oregon State University, priority 2015, published 2018).
# Molecular target: T1, sMMO (Methylosinus trichosporium, UniProt P27353)
# T1 construct: endogenous in cells; host or cells: M. trichosporium OB3b whole cells, grown without copper (chemostat or batch)
# T1 sequence (P27353 1-526): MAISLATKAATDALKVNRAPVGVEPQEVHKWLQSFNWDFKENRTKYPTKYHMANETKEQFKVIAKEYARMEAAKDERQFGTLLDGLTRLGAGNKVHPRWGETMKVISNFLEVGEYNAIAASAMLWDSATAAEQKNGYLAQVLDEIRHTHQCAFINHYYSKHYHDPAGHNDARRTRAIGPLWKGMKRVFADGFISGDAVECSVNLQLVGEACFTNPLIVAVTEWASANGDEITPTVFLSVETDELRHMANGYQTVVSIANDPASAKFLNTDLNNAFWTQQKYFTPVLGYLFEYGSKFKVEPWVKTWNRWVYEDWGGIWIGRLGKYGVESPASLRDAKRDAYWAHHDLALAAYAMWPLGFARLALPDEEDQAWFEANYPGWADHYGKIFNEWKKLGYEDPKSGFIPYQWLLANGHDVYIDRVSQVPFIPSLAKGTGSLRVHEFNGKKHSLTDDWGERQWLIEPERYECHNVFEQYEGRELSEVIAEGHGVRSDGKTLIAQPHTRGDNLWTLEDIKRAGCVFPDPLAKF
# T1 sequence (P27354 1-394 partner): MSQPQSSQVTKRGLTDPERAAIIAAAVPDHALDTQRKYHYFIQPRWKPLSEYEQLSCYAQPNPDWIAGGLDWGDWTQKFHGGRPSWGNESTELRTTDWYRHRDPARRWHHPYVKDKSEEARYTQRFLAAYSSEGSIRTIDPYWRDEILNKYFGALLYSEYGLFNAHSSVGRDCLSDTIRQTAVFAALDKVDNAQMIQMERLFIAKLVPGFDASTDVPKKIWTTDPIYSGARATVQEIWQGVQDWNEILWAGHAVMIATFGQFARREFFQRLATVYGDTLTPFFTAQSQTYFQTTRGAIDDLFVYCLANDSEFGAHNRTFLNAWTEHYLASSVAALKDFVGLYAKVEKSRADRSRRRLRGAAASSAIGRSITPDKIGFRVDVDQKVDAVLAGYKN
# T1 sequence (P27355 1-169 partner): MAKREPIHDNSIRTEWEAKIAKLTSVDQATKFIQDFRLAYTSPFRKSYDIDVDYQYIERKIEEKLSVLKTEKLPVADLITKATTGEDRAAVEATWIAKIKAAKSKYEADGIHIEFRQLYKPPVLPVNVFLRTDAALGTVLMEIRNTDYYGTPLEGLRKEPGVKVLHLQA
# Assay: sMMO activity reactivity assay, inhibitor trials
# Type: cell-based, M. trichosporium OB3b
# Procedure: M. trichosporium OB3b cultures were grown under plus copper (pMMO expressed) or minus copper (sMMO expressed) conditions using chemostat or batch culture conditions. Aliquots of culture (˜100 ml) were harvested by centrifugation, and concentrated 50-fold in fresh media. Pelleting cells in this manner ensured that all residual methane was eliminated, increased ease of measuring protein, and made activity assays as brief as possible. Assays were performed in 30 ml crimp cap reaction vials with 4 ml of media (either +Cu or −Cu) with 10 mM sodium formate. To initiate assays, 100 µl of the 50× cell suspension was added to reaction vials with a plastic syringe. Short descriptions of activity assays follow.
# Due to the relative insolubility of methane, large volumes should be added to reaction vials to achieve concentrations in the aqueous phase (Cw) above the concentration of methane where the velocity of methane consumption (V) is equal to 0.5Vmax for minus copper grown M. trichosporium OB3b cultures. These large methane additions make direct measurement of methane consumption in short-term assays unlikely, therefore the accumulation of ethylene oxide (ETO) upon the oxidation of ethylene (ETH) was used as a surrogate measurement. Reaction vials were prepared as described above and 5 ml of ETH added as an overpressure. The appearance of ETO was monitored by gas chromatography evaluation of Cw over the course of 30 minutes (FIG. 39A). Killed cells (boiled) served as a negative control. pMMO is a copper enzyme and can be inhibited by allylthiourea (ATU), while sMMO (an iron enzyme) is insensitive to inhibition by ATU. The ETH to ETO assay described above was repeated with 10 μM ATU to discriminate between sMMO and pMMO activity.
# Metabolic activity test methods have been developed to monitor specific activities in M. trichosporium OB3b cultures. A naphthalene oxidation assay was used to determine if sMMO is being expressed. An ethylene to ethylene oxide reaction assay and a methane oxidation assay was used to quantify MMO activity, and a methanol oxidation assay was used to estimate MDH activity. Concurrent batch metabolic tests can be conducted to investigate methanol inhibition of methane oxidation, cyclopropane to cyclopropanol conversion and concurrent/subsequent cyclopropanol inhibition of MDH activity, the effect of cyclopropanol inhibition on growth yield, and the effects of high oxygen concentration. Once stable operation and baseline metabolic monitoring in the chemostat have been achieved, inhibitor can be added to evaluate chemostat operation under methanol-producing conditions.
# MMO activity has been measured via both methane (CH4) consumption and ethylene oxide (ETO) production upon oxidation of the non-growth substrate ethylene (ETH, Table 4). While ETO production matches methane consumption for pMMO, ETH is not as good a substrate for sMMO as methane. Nevertheless, the ETO accumulation assay is quick (<30 min) and can be used to screen for activity before starting a larger experiment.
# The effect of salts NaCl, NH4Cl and CaCl2 on MMO and MDH activity was evaluated using the reactivity assays described above.
compound,measurement,setting,value
"C1CC1 [CP, cyclopropane]","Fraction of Activity Remaining, sMMO",CP 03 μmol,0.9
same,"Fraction of Activity Remaining, sMMO",CP 32 μmol,0.9
same,"Fraction of Activity Remaining, sMMO",CP 64 μmol,0.8
